Measurements taken from US20250368648A1, “MULTI-CYCLIC IRAK AND FLT3 INHIBITING COMPOUNDS AND USES THEREOF” (CHILDREN'S HOSPITAL MEDICAL CENTER, priority 2022, published 2025).

Key:
Conditions in all cases: no ATP
IRAK4 = molecular target: T1, IRAK4 (Homo sapiens, UniProt Q9NWZ3); test: DiscoverX KINOMEscan competition binding, IRAK4; parameters: purchased RBC (Reaction Biology) HotSpot assay
T1 sequence (Q9NWZ3 1-460): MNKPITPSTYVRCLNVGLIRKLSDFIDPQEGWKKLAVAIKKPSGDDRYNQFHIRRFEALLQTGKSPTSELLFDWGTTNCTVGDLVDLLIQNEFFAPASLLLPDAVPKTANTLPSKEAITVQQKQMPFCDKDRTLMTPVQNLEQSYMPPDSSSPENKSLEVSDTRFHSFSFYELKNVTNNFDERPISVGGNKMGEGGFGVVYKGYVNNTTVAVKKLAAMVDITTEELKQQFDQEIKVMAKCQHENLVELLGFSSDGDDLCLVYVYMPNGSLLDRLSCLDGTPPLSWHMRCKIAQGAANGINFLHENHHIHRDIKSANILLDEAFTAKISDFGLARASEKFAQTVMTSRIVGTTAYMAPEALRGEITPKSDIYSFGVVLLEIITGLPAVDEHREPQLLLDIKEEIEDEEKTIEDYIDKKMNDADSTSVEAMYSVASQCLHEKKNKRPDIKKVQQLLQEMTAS
Description: (§1) Kinase binding data were obtained for various exemplary compounds prepared according to Examples 2-15 using the DiscoverX KINOMEscan® active site-directed competition binding site-directed assay protocol described below. […] As a result, the data report thermodynamic interaction affinities (Kd values), rather than IC50 values that are dependent on ATP concentrations. The assay uses a DNA-tagged version of the protein kinase, and an immobilized ligand bound to a solid support. Compounds that directly or indirectly prevent kinase binding to the immobilized ligand reduce the amount of kinase captured on the solid support, which is detected using an ultra-sensitive qPCR method. Affinity constants reported from the assay have been reported to be independent of the immobilized ligand used that is coupled to the solid support (See supplemental information in Fabian, M. A. et. al., (2005) Nat. […] Wodicka, L. […] Biol. 17, 1241-1249.) Kinase-tagged T7 phage strains were prepared in an E. coli host derived from the BL21 strain. E. coli were grown to log-phase and infected with T7 phage and incubated with shaking at 32° C. until lysis. […] Kds were determined using an 11-point 3-fold compound dilution series with three DMSO control points. […] The kinase concentration in the eluates was measured by qPCR. Binding constants (Kds) were calculated with a standard dose-response curve using the Hill equation. […]

IRAK1 = molecular target: T2, IRAK1 (Homo sapiens, UniProt P51617); test: DiscoverX KINOMEscan competition binding, IRAK1
T2 construct: purchased RBC (Reaction Biology) HotSpot assay
Description: as §1

FLT3 D835V = molecular target: T3, FLT3 D835V (Homo sapiens, UniProt P36888, D835V); test: DiscoverX KINOMEscan competition binding, FLT3 D835V
T3 construct: purchased DiscoverX (KINOMEscan); host or cells: E. coli (T7 phage) or HEK-293
T3 sequence (P36888 27-993 D835V): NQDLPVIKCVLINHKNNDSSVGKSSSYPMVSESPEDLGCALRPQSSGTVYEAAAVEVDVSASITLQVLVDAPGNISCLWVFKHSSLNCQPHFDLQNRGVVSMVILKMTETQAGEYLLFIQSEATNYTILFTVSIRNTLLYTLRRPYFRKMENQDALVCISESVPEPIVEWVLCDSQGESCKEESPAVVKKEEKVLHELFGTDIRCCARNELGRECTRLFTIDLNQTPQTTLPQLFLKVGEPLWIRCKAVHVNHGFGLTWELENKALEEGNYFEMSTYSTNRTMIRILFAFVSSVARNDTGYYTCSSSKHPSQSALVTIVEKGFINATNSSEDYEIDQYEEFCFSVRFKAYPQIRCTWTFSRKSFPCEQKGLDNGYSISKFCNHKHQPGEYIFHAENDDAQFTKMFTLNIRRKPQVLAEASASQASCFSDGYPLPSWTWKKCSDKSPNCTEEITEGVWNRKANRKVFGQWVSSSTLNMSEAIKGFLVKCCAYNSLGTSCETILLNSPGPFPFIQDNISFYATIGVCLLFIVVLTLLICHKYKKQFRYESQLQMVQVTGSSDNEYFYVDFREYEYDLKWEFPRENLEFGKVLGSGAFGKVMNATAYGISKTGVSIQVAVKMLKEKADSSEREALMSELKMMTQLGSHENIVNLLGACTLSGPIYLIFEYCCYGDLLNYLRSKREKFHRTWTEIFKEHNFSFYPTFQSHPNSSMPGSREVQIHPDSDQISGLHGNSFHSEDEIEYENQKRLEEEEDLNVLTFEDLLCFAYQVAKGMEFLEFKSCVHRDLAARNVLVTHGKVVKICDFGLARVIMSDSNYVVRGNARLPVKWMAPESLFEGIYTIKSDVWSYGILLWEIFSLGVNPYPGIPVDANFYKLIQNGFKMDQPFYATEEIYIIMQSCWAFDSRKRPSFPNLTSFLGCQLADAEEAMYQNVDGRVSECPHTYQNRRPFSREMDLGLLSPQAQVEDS
Description: as §1

T2 sequence (P51617 whole entry): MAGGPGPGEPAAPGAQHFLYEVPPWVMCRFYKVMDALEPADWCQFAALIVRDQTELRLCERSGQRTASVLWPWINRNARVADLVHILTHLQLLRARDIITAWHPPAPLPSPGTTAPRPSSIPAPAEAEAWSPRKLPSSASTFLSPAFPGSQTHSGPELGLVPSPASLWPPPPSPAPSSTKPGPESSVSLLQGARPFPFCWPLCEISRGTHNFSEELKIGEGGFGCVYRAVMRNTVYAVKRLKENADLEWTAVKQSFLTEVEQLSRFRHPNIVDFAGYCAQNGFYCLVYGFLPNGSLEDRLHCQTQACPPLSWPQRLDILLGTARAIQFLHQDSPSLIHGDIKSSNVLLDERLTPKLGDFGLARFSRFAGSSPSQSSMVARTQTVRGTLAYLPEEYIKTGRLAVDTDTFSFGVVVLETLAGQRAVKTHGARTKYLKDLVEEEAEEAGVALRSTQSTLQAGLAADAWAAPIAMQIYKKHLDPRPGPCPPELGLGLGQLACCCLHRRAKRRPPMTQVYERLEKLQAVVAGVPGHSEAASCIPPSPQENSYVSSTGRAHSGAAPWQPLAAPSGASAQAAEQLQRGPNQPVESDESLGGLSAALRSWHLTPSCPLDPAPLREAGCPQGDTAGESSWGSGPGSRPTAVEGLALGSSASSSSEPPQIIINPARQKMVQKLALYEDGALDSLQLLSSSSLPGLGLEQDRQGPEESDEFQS

With `COc1cc2ncc(-c3nc(N[C@H]4CNCC[C@@H]4F)c(F)cc3F)n2nc1C1CCC1` [Compound 15a, 6-(6-cyclobutyl-7-methoxyimidazo[1,2-b]pyridazin-3-yl)-3,5-difluoro-N-((3S,4S)-4-fluoropiperidin-3-yl)pyridin-2-amine] the Kd (IRAK4) was 0.32 nM, the Kd (IRAK1) was 1.4 nM and the Kd (FLT3 D835V) was < 0.17 nM.
